According to patent US9481648B2, “Kinase inhibitors” (Respivert Limited, priority 2013, dated 2016):
pIC50: −log10 of the molar value.

Legend:
[1] = biological target: p38 MAPKα (MAPK14) (Homo sapiens (Human), UniProt Q16539); test: p38 MAPKα enzyme inhibition (FRET, Z-LYTE; Method 2); type: biochemical
Experimental: (§1) The enzyme inhibitory activities of compounds disclosed herein are determined by FRET using synthetic peptides labelled with both donor and acceptor fluorophores (Z-LYTE, Invitrogen Ltd., Paisley, UK).
The inhibitory activities of test compounds against the p38 MAPKα isoform (MAPK14: Invitrogen) are evaluated indirectly by determining the level of activation\phosphorylation of the down-stream molecule, MAPKAP-K2. The p38 MAPKα protein (80 ng/mL, 2.5 μL) is mixed with the test compound (2.5 μL of either 4 μg/mL, 0.4 μg/mL, 0.04 μg/mL or 0.004 μg/mL) for 2 hr at RT. […] The mixture is incubated for 1 hr at RT. Development reagent (protease, 5 μL) is added for 1 hr prior to detection in a fluorescence microplate reader (Vanoskan® Flash, ThermoFisher Scientific).
(§2) In all cases, the site-specific protease cleaves non-phosphorylated peptide only and eliminates the FRET signal. Phosphorylation levels of each reaction are calculated using the ratio of coumarin emission (donor) over fluorescein emission (acceptor), for which high ratios indicate high phosphorylation and low ratios indicate low phosphorylation levels.

[2] = biological target: c-Src (Homo sapiens (Human), UniProt P12931); test: c-Src enzyme inhibition (FRET, Z-LYTE); type: biochemical
Chain of c-Src (P12931 whole entry, looked up): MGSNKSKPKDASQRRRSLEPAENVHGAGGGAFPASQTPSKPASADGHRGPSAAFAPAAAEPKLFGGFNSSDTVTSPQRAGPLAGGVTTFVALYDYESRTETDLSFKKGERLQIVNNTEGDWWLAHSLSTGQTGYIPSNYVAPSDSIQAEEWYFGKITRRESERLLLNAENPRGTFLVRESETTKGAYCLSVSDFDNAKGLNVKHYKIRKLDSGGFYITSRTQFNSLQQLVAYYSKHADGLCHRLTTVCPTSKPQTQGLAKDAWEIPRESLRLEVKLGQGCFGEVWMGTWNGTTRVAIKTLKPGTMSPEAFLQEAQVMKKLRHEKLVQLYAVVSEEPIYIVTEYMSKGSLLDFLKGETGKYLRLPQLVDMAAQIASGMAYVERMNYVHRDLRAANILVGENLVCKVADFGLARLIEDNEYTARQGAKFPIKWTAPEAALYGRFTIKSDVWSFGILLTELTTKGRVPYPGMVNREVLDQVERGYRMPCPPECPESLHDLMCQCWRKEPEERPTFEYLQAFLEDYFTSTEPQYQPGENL
Experimental: as §1
(§3) The relevant enzyme (3000 ng/mL or 2000 ng/mL respectively, 2.5 μL) is incubated with the test compound (either 1 μg/mL, 0.1 μg/mL, 0.01 μg/mL, or 0.001 μg/mL, 2.5 μL each) for 2 hr at RT. The FRET peptides (8 μM, 2.5 μL), and appropriate ATP solutions (2.5 μL, 800 μM for c-Src, and 60 μM ATP for Syk) are then added to the enzymes/compound mixtures and the mixture incubated for 1 hr. Development reagent (protease, 5 μL) is added for 1 hr prior to detection in a fluorescence microplate reader (Varioskan® Flash, ThermoFisher Scientific).
as §2

[3] = biological target: Syk (Homo sapiens (Human), UniProt P43405); test: Syk enzyme inhibition (FRET, Z-LYTE); type: biochemical
Experimental: as §1, §3, §2

[4] = biological target: GSK 3α (Homo sapiens (Human), UniProt P49840); test: GSK 3α enzyme inhibition (FRET, Z-LYTE; Method 2); type: biochemical; details: read-out: IC50 Values for Enzyme Inhibition GSK3α
Chain of GSK 3α (P49840 whole entry): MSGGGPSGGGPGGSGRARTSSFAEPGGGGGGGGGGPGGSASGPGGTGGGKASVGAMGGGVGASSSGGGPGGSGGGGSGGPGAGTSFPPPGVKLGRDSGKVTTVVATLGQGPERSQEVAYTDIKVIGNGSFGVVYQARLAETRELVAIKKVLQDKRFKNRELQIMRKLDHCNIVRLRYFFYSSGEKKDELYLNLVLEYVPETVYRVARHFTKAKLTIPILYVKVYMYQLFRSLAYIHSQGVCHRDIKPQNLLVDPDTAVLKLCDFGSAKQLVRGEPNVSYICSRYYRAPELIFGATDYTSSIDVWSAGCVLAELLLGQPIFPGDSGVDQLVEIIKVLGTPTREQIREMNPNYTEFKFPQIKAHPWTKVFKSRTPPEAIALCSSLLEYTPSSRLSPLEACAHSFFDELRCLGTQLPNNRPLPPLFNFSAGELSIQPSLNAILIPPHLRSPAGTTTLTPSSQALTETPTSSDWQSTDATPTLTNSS
Method in brief: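 Phosphorylation was taken from the donor (coumarin) to acceptor (fluorescein) emission ratio after 1 h protease development, which cleaves only unphosphorylated peptide. Before that, peptide (8 μM stock) plus ATP (40 μM stock) reacted 1 h. This followed a 105 min RT preincubation of GSK3-α with compound stocks of 10–0.01 μg/mL.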

[5] = tested on: β-catenin in d-U937 cells; test: Accumulation of β catenin in d-U937 cells (assay m); type: cell-based, human
Experimental: U937 cells, a human monocytic cell line, are differentiated into macrophage-type cells by incubation with PMA (100 ng/mL) for between 48 to 72 hr. The cells are then incubated with either final concentrations of test compound or vehicle for 18 hr. The induction of β-catenin by the test compounds is stopped by replacing the media with 4% formaldehyde solution. Endogenous […] is neutralised by incubating with quenching buffer (100 μL, 0.1% sodium azide, 1% H2O2 in PBS with 0.05% Tween-20) for 20 min. The cells are washed with washing buffer (200 μL; PBS containing 0.05% Tween-20) and incubated with blocking solution (200 μL; 5% milk in PBS) for 1 hr, re-washed with washing buffer (200 μL) and then incubated overnight with anti-β-catenin antibody solution (50 μL) in 1% BSA/PBS (BD, Oxford, UK).
After washing with washing buffer (3×200 μL; PBS containing 0.05% Tween-20), cells are incubated with a HRP-conjugated secondary antibody solution (100 μL) in 1% BSA/PBS (Dako, Cambridge, UK) and the resultant signal is determined colourimetrically (OD: 450 nm with a reference wavelength of 655 nm) using TMB substrate (50 μL; R&D Systems, Abingdon, UK). This reaction is stopped by addition of 1N H2SO4 solution (50 μL). Cells are then washed with washing buffer and 2% crystal violet solution (50 μL) is applied for 30 min. After washing with washing buffer (3×200 μL), 1% SDS (100 μL) is added to each well and the plates are shaken lightly for 1 hr prior to measuring the absorbance at 595 nm (Varioskan® Flash, Thermo-Fisher Scientific).
The measured OD450-655 readings are corrected for cell number by dividing the OD450-655 by the OD595 readings.

Chain of p38 MAPKα (MAPK14) (Q16539 whole entry): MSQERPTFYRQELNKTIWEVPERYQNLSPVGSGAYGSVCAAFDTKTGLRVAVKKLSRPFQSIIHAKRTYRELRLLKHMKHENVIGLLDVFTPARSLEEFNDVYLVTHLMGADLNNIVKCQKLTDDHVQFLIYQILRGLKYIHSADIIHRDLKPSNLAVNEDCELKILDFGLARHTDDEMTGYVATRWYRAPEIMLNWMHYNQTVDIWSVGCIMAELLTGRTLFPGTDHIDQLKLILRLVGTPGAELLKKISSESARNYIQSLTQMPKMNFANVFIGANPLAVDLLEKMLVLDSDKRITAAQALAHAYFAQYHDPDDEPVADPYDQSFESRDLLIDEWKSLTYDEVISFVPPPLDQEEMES

Row | Structure (SMILES) | pIC50 [1] | pIC50 [2] | pIC50 [3] | pIC50 [4] | % β-catenin induction ([5]; test compound 1 μg/mL) | % β-catenin induction ([5]; test compound 5 μg/mL) | % β-catenin induction ([5]; test compound 10 μg/mL)
1 | COCCOCCOCCOc1cc(Nc2nccc(Oc3ccc(NC(=O)Nc4cc(C(C)(C)C)cc(NS(=O)(=O)N5CCOCC5)c4OC)c4ccccc34)n2)cc(OC)c1 [83(b), N-(5-(tert-butyl)-2-methoxy-3-(3-(4-((2-((3-methoxy-5-(2-(2-(2-methoxyethoxy)ethoxy)-ethoxy)phenyl)amino)pyrimidin-4-yl)oxy)naphthalen-1-yl)ureido)phenyl)morpholine-4-sulfonamide] | 6.61 | 7.32 | 6.10 | 5.04 | −6% | −9% | −6%
2 | COc1cc(Nc2cc(Oc3ccc(NC(=O)Nc4cc(C(C)(C)C)cc(NS(C)(=O)=O)c4OC)c4ccccc34)ccn2)cc(OCCOCCOCCO)c1 [84(e), 1-[5-tert-Butyl-3-(methanesulfonamido)-2-methoxy-phenyl]-3-[4-[[2-[3-[2-[2-(2-hydroxyethoxy)ethoxy]ethoxy]-5-methoxy-anilino]-4-pyridyl]oxy]-1-naphthyl]urea] | 7.11 | 7.44 | 6.90 | 5.35 | −1% | 5% | 7%
3 | COc1cc(CO)cc(Nc2cc(Oc3ccc(NC(=O)Nc4cc(C(C)(C)C)cc(C(N)=O)c4OC)c4ccccc34)ccn2)c1 [84(g), 5-tert-Butyl-3-[[4-[[2-[3-(hydroxymethyl)-5-methoxyanilino]-4-pyridyl]oxy]-1-naphthyl]carbamoylamino]-2-methoxybenzamide] | 7.07 | 7.55 | 6.86 | 5.64 | 1% | 8% | 7%
4 | CNC(=O)c1cc(C(C)(C)C)cc(NC(=O)Nc2ccc(Oc3ccnc(Nc4cc(CO)cc(OC)c4)c3)c3ccccc23)c1OC [84(h), 5-tert-Butyl-3-[[4-[[2-[3-(hydroxymethyl)-5-methoxyanilino]-4-pyridyl]oxy]-1-naphthyl]carbamoylamino]-2-methoxy-N-methyl-benzamide] | 7.10 | 7.68 | 6.89 | 5.78 | −1% | 11% | 10%
5 | C#Cc1cc(Nc2nccc(Oc3ccc(NC(=O)Nc4cc(C(C)(C)C)cc(NS(C)(=O)=O)c4OC)c4ccccc34)n2)cc(C(=O)NCCN2CCOCC2)c1 [Example 1, 3-((4-((4-(3-(5-(tert-Butv)-2-methoxy-3-(methysulfonamido)phenyl)ureido)naphthalen-1-yl)oxy)pyrimidin-2-yl)amino)-5-ethynyl-N-(2-morpholinoethyl)benzamide] | 6.93 | 7.92 | 7.29 | 6.18 | 18% | 17% | 
6 | COc1cc(Nc2nccc(Oc3ccc(NC(=O)Nc4cc(C(C)(C)C)cc(NS(C)(=O)=O)c4OC)c4ccccc34)n2)cc(C(=O)NCCN2CCOCC2)c1 [Example 6, 3-((4-((4-(3-(5(tert-Butyl)-2-methoxy-3-(methylsulfonamido)phenyl)ureido)naphthaen-1-yl)oxy)pyrimidin-2-yl)amino)-5-methox-N-(2-morpholinoethyl)benzamide] | 7.47 | 7.96 | 6.38 | 6.27 | 7% | 20% | 11%
7 | COCCOCCOCCNC(=O)c1cc(Nc2nccc(Oc3ccc(NC(=O)Nc4cc(C(C)(C)C)cc(NS(C)(=O)=O)c4OC)c4ccccc34)n2)cc(OC)c1 [Example 7] | 7.41 | 8.05 | 6.26 | 6.29 | 13% | 29% | 29%
8 | COCCOCCOCCOc1cc(Nc2nccc(Oc3ccc(NC(=O)Nc4cc(C(C)(C)C)cc(NS(C)(=O)=O)c4OC)c(Cl)c3Cl)n2)cc(OC)c1 [Example 10, N-(5-(tert-Butyl)-3-(3-(2,3-dichloro-4-((2-((3-methoxy-5-(2-(2-(2-methoxyethoxy)ethoxy)-ethoxy)phenyl)amino)pyrimidin-4-yl)oxy)phenyl)ureido)-2-methoxyphenyl)-methanesulfonamide] | 6.26 | 7.74 | 7.20 | 5.88 | 12% | 42% | 39%
9 | COCCOCCOCCOc1cc(Nc2cc(Oc3ccc(NC(=O)Nc4cc(C(C)(C)C)cc(NS(C)(=O)=O)c4OC)c4ccccc34)ccn2)cc(OC)c1 [Example 11, N-(5-(tert-Butyl)-2-methoxy-3-(3-(4-((2-((3-methoxy-5-(2-(2-(2-methoxyethoxy)ethoxy)-ethoxy)phenyl)amino)pyridin-4-yl)oxy)naphthalen-1-yl)ureido)phenyl)-methanesulfonamide] | 6.91 | 7.68 | 6.71 | 4.91 | −8% | −5% | −2%
10 | CNC(=O)c1cc(C(C)(C)C)cc(NC(=O)Nc2ccc(Oc3ccnc(Nc4cc(OC)cc(OCCOCCOCCOC)c4)n3)c3ccccc23)c1OC [Example 13, 5-(tert-Butyl)-2-methoxy-3-(3-(4-((2-((3-methoxy-5-(2-(2-(2-methoxyethoxy)ethoxy)-ethoxy)phenyl)amino)pyrimidin-4-yl)oxy)naphthalen-1-yl)ureido)-N-methylbenzamide] | 7.55 | 8.05 | 7.46 | 6.08 | 7% | 34% | 26%
11 | COCCOCCOCCOc1cc(Nc2nccc(Oc3ccc(NC(=O)Nc4cc(C(C)(C)C)cc(-c5cnn[nH]5)c4OC)c4ccccc34)n2)cc(OC)c1 [Example 70, 1-(5-(tert-Butyl)-2-methoxy-3-(1H-1,2,3-triazol-5-yl)phenyl)-3-(4-((2-((3-methoxy-5-(2-(2-(2-methoxyethoxy)ethoxy)ethoxy)phenyl)amino)pyrimidin-4-yl)oxy)naphthalen-1-yl)urea] | 6.48 | 7.17 | 7.07 | 5.40 |  |  | 
12 | COc1cc(Nc2cc(Oc3ccc(NC(=O)Nc4cc(C(C)(C)C)cc(NS(C)(=O)=O)c4OC)c4ccccc34)ccn2)cc(C(=O)NCC(=O)N2CCOCC2)c1 [Example 85(a), 3-[[4-[[4-[[5-tert-Butyl-3-(methanesulfonamido)-2-methoxyphenyl]-carbamoylamino]-1-naphthyl]oxy]-2-pyridyl]amino]-5-methoxy-N-(2-morvholino-2-oxo-ethyl)benzamide] | 7.42 | 7.54 | 6.18 | 5.17 |  |  | 
